Results taken from ChEMBL document CHEMBL4382259, “Synthesis of novel guttiferone E and xanthochymol derivatives with cytotoxicities by inducing cell apoptosis and arresting the cell cycle phase” (Eur J Med Chem, 2019).

Tests used:
Format in all cases: functional, cell-based
HEL = assay: Antiproliferative activity against HEL cells after 72 hrs by MTT assay; conditions: Homo sapiens
K562 = assay: Antiproliferative activity against human K562 cells after 72 hrs by MTT assay; conditions: K562, 72 h
HeLa = assay: Antiproliferative activity against human HeLa cells after 72 hrs by MTT assay
MCF7 = assay: Antiproliferative activity against human MCF7 cells after 72 hrs by MTT assay; conditions: MCF7, 72 h
A549 = assay: Antiproliferative activity against human A549 cells after 72 hrs by MTT assay; conditions: A549, 72 h

Row | IC50 (K562) [µM] | IC50 (HeLa) [µM] | IC50 (MCF7) [µM] | IC50 (A549) [µM] | Compound | IC50 (HEL) [µM]
1 | > 20 | 19.7 | > 20 | > 20 | COc1ccc(C(=O)C2=C3OC(C)(C)[C@@H](CC=C(C)C)C[C@@]34C[C@@H](CC=C(C)C)C(C)(C)[C@@](CC=C(C)C)(C2=O)C4=O)cc1OC | > 20
2 | > 20 | > 20 | > 20 | 17.2 | CC(C)=CCOc1ccc(C(=O)C2=C3OC(C)(C)[C@@H](CC=C(C)C)C[C@@]34C[C@@H](CC=C(C)C)C(C)(C)[C@@](CC=C(C)C)(C2=O)C4=O)cc1OCC=C(C)C | > 20
3 | > 20 | 15.5 | 9.29 | > 20 | CC(C)=CC[C@H]1C[C@@]23C[C@@H](CC=C(C)C)C(C)(C)[C@@](CC=C(C)C)(C(=O)C(C(=O)c4ccc(OCCCCCBr)c(O)c4)=C2OC1(C)C)C3=O | > 20
4 | > 20 | > 20 | 16 | > 20 | CC(C)=CC[C@H]1C[C@@]23C[C@@H](CC=C(C)C)C(C)(C)[C@@](CC=C(C)C)(C(=O)C(C(=O)c4ccc(OCCCCCN5CCOCC5)c(O)c4)=C2OC1(C)C)C3=O | > 20
5 | 14.5 | 10.9 | > 20 | > 20 | COc1ccc(C(=O)C2=C3OC(C)(C)[C@@H](CC=C(C)C)C[C@@]34C[C@@H](CC=C(C)C)C(C)(C)[C@@](CC=C(C)C)(C2=O)C4=O)cc1O | 13.4
6 | > 20 | 15.4 | 16.6 | 19.2 | CCCCCC(=O)Oc1ccc(C(=O)C2=C3OC(C)(C)[C@@H](CC=C(C)C)C[C@@]34C[C@@H](CC=C(C)C)C(C)(C)[C@H]3CCC(C)(C)O[C@]34OC2=O)cc1OC(=O)CCCCC | 19.9
7 | > 20 | > 20 | > 20 | > 20 | COc1ccc(C(=O)Oc2ccc(C(=O)C3=C4OC(C)(C)[C@@H](CC=C(C)C)C[C@@]45C[C@@H](CC=C(C)C)C(C)(C)[C@H]4CCC(C)(C)O[C@]45OC3=O)cc2OC(=O)c2ccc(OC)cc2)cc1 | > 20
8 | > 20 | > 20 | > 20 | > 20 | C=C(C)[C@@H](CC=C(C)C)C[C@]12C[C@@H](CC=C(C)C)C(C)(C)[C@](CC=C(C)C)(C1=O)c1oc3cc(O)c(O)cc3c(=O)c1C2=O | > 20
9 | 14.5 | > 20 | > 20 | > 20 | CC(C)=CC[C@H]1C[C@@]23C[C@@H](CC=C(C)C)C(C)(C)[C@@](CC=C(C)C)(C(=O)C(C(=O)c4ccc(O)c(OC(=O)CCCCCBr)c4)=C2OC1(C)C)C3=O | 9.62
10 | > 20 | 8.8 | 16.5 | 20 | CC(C)=CC[C@H]1C[C@@]23C[C@@H](CC=C(C)C)C(C)(C)[C@@](CC=C(C)C)(C(=O)C(C(=O)c4ccc(OC(=O)c5cccs5)c(OC(=O)c5cccs5)c4)=C2OC1(C)C)C3=O | > 20
11 | 0.65 | 1.69 | 1.74 | 3.16 | COc1cccc2c1C(=O)c1c(O)c3c(c(O)c1C2=O)C[C@@](O)(C(=O)CO)C[C@@H]3O[C@H]1C[C@H](N)[C@H](O)[C@H](C)O1 [DOXORUBICIN] | 0.42
12 | 10.7 | 19.4 | > 20 | > 20 | C=CC(=O)Oc1cc(C(=O)C2=C3OC(C)(C)[C@@H](CC=C(C)C)C[C@@]34C[C@@H](CC=C(C)C)C(C)(C)[C@@](CC=C(C)C)(C2=O)C4=O)ccc1O | 4.66
13 | 13.8 | 6.17 | 9.99 | 9.33 | CC(C)=CC[C@H]1C[C@@]23C[C@@H](CC=C(C)C)C(C)(C)[C@@](CC=C(C)C)(C(=O)C(C(=O)c4ccc(O)c(OC(=O)c5ccccc5)c4)=C2OC1(C)C)C3=O | 9.51
14 | 10.4 | > 20 | > 20 | > 20 | C=C(C)[C@@H](CC=C(C)C)C[C@@]12C[C@@H](CC=C(C)C)C(C)(C)[C@@](CC=C(C)C)(C(=O)c3c1oc1cc(O)c(O)cc1c3=O)C2=O | 4.5
15 | 12.1 | > 20 | > 20 | – | CCC(=O)Oc1cc(C(=O)C2=C3OC(C)(C)[C@@H](CC=C(C)C)C[C@@]34C[C@@H](CC=C(C)C)C(C)(C)[C@H]3CCC(C)(C)O[C@]34OC2=O)ccc1O | 9.71
16 | > 20 | > 20 | > 20 | > 20 | C#CCOc1ccc(C(=O)C2=C3OC(C)(C)[C@@H](CC=C(C)C)C[C@@]34C[C@@H](CC=C(C)C)C(C)(C)[C@@](CC=C(C)C)(C2=O)C4=O)cc1O | > 20
17 | > 20 | > 20 | > 20 | > 20 | CC(C)=CC[C@H]1C[C@]23C[C@@H](CC=C(C)C)C(C)(C)[C@H]4CCC(C)(C)O[C@]42OC(=O)C(C(=O)c2ccc(OC(=O)c4ccc(Br)cc4)c(OC(=O)c4ccc(Br)cc4)c2)=C3OC1(C)C | > 20

Row | IC50 (K562) [µM] | IC50 (HeLa) [µM] | IC50 (MCF7) [µM] | IC50 (A549) [µM] | Compound | IC50 (HEL) [µM]
18 | > 20 | 5.32 | 4.83 | 12.3 | CC(=O)Oc1ccc(C(=O)C2=C3OC(C)(C)[C@@H](CC=C(C)C)C[C@@]34C[C@@H](CC=C(C)C)C(C)(C)[C@H]3CCC(C)(C)O[C@]34OC2=O)cc1OC(C)=O | > 20
19 | 15.3 | > 20 | > 20 | > 20 | CCCCCCCC(=O)Oc1cc(C(=O)C2=C3OC(C)(C)[C@@H](CC=C(C)C)C[C@@]34C[C@@H](CC=C(C)C)C(C)(C)[C@H]3CCC(C)(C)O[C@]34OC2=O)ccc1O | 18.7
20 | > 20 | 15.9 | > 20 | 10.6 | CC(C)=CC[C@H]1C[C@@]23C[C@@H](CC=C(C)C)C(C)(C)[C@@](CC=C(C)C)(C(=O)C(C(=O)c4ccc(OCc5ccccc5)c(O)c4)=C2OC1(C)C)C3=O | > 20
21 | > 20 | > 20 | > 20 | > 20 | CC(C)=CC[C@H]1C[C@@]23C[C@@H](CC=C(C)C)C(C)(C)[C@@](CC=C(C)C)(C(=O)C(C(=O)c4ccc(OC(=O)CCCCCBr)c(OC(=O)CCCCCBr)c4)=C2OC1(C)C)C3=O | > 20
22 | > 20 | 5 | > 20 | > 20 | CC(C)=CC[C@H]1C[C@@]23C[C@@H](CC=C(C)C)C(C)(C)[C@@](CC=C(C)C)(C(=O)C(C(=O)c4ccc(OCCCCCN5CCOCC5)c(OCCCCCN5CCOCC5)c4)=C2OC1(C)C)C3=O | > 20
23 | > 20 | 12.2 | 18.6 | > 20 | CC(C)=CCOc1ccc(C(=O)C2=C3OC(C)(C)[C@@H](CC=C(C)C)C[C@@]34C[C@@H](CC=C(C)C)C(C)(C)[C@@](CC=C(C)C)(C2=O)C4=O)cc1O | > 20
24 | 13.9 | 10.8 | > 20 | > 20 | CC(C)=CC[C@H]1C[C@@]23C[C@@H](CC=C(C)C)C(C)(C)[C@@](CC=C(C)C)(C(=O)C(C(=O)c4ccc(O)c(OC(=O)c5cccs5)c4)=C2OC1(C)C)C3=O | 9.56
25 | > 20 | 15 | 11.5 | > 20 | C=CCOc1ccc(C(=O)C2=C3OC(C)(C)[C@@H](CC=C(C)C)C[C@@]34C[C@@H](CC=C(C)C)C(C)(C)[C@@](CC=C(C)C)(C2=O)C4=O)cc1O | > 20
26 | > 20 | 6.25 | 3.15 | 9.53 | CC(C)=CC[C@H]1C[C@@]23C[C@@H](CC=C(C)C)C(C)(C)[C@@](CC=C(C)C)(C(=O)C(C(=O)c4ccc(OS(=O)(=O)c5ccc(C)cc5)c(OS(=O)(=O)c5ccc(C)cc5)c4)=C2OC1(C)C)C3=O | > 20
27 | 14.1 | 16.5 | 10.2 | 19.2 | CC(C)=CC[C@H]1C[C@@]23C[C@@H](CC=C(C)C)C(C)(C)[C@@](CC=C(C)C)(C(=O)C(C(=O)c4ccc(O)c(O)c4)=C2OC1(C)C)C3=O [CAMBOGIN] | 9.24
28 | > 20 | 11.3 | 7.56 | 17.2 | CCN(CC)CCCCCOc1ccc(C(=O)C2=C3OC(C)(C)[C@@H](CC=C(C)C)C[C@@]34C[C@@H](CC=C(C)C)C(C)(C)[C@@](CC=C(C)C)(C2=O)C4=O)cc1OCCCCCN(CC)CC | > 20
29 | > 20 | > 20 | > 20 | > 20 | CC(C)=CC[C@H]1C[C@]23C[C@@H](CC=C(C)C)C(C)(C)[C@H]4CCC(C)(C)O[C@]42OC(=O)C(C(=O)c2ccc(OC(=O)c4ccccc4)c(OC(=O)c4ccccc4)c2)=C3OC1(C)C | > 20
30 | 13.5 | > 20 | 15.5 | 19.5 | CCCCCC(=O)Oc1cc(C(=O)C2=C3OC(C)(C)[C@@H](CC=C(C)C)C[C@@]34C[C@@H](CC=C(C)C)C(C)(C)[C@H]3CCC(C)(C)O[C@]34OC2=O)ccc1O | 9.53
31 | > 20 | 10.6 | 15.1 | > 20 | CC(C)=CC[C@H]1C[C@@]23C[C@@H](CC=C(C)C)C(C)(C)[C@@](CC=C(C)C)(C(=O)C(C(=O)c4ccc(OCc5ccccc5)c(OCc5ccccc5)c4)=C2OC1(C)C)C3=O | > 20
32 | > 20 | > 20 | > 20 | > 20 | CCCCCCCC(=O)Oc1ccc(C(=O)C2=C3OC(C)(C)[C@@H](CC=C(C)C)C[C@@]34C[C@@H](CC=C(C)C)C(C)(C)[C@H]3CCC(C)(C)O[C@]34OC2=O)cc1OC(=O)CCCCCCC | > 20
33 | 17.6 | > 20 | > 20 | > 20 | C#CCOc1ccc(C(=O)C2=C3OC(C)(C)[C@@H](CC=C(C)C)C[C@@]34C[C@@H](CC=C(C)C)C(C)(C)[C@@](CC=C(C)C)(C2=O)C4=O)cc1OCC#C | 8.89
